Measured values published in PubChem BioAssay AID743161 (Sanford-Burnham Center for Chemical Genomics, 2013).
Several values for one entry are separate records, joined by “and”; a condition that tells them apart may be missing. Equal entries are not always repeated. Activity calls are given as the source filed them.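 Rule for the calls: active = compounds whose lipid-stain IC50 is at most a set limit, with nuclear-stain IC50 a set multiple higher; inactive = the rest.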

Each compound was assayed on H9c2 rat cardiomyoblasts, Nile Red TAG fluorescence, overnight (assay: inhibitors of triacylglycerol buildup in H9c2 cells, dose response, cell-based, H9c2 rat cardiomyoblasts, Nile Red fluorescence, primary readout (AID 743161)).
With `COc1cc2c(cc1OC)C(C)N(C(=O)c1cc3c(C)cc(C)cc3[nH]1)CC2` (centres undefined) the IC50 was 18.2 µM (inactive). `COc1ccc(-c2csc(NC(=O)c3ccc(OCC(=O)N4CCOCC4)c(OC)c3)n2)cc1` gave an IC50 of 0.662 µM. With `COCCN1Cc2cccc(C(=O)Nc3ccc(S(=O)(=O)N4CCCCC4)cc3)c2C1=O` the IC50 was > 50 µM (inactive). `CC(C)CC(=O)Nc1cccc(-c2nc3ccccc3[nH]2)c1` was tested, and the IC50 was > 50 µM (inactive). Work on `COc1ccc(CCN2Cc3cccc(C(=O)Nc4cccc(-c5nc6ccccc6[nH]5)c4)c3C2=O)cc1OC` yielded an IC50 of 1.1 µM. For `COCCN1Cc2cccc(C(=O)Nc3cccc(-c4nc5ccc(F)cc5[nH]4)c3)c2C1=O`, the IC50 was 1.27 µM. In the case of `Cc1ccc(-c2csc(NC(=O)CSc3nc4ccccc4c(=O)n3CCCN(C)C)n2)cc1`, the IC50 is reported as 17.5 µM (inactive). In the case of `CN(C)CCCn1c(SCC(=O)Nc2nc(-c3cccc(Br)c3)cs2)nc2ccccc2c1=O`, the IC50 is reported as 22.8 µM (inactive). With `COCCN1Cc2cccc(C(=O)Nc3cccc(Cl)c3Cl)c2C1=O` the IC50 was > 50 µM (inactive). In the case of `CCCC(=O)Nc1nc2ccc(NC(=O)c3c(F)c(F)c(OC)c(F)c3F)cc2s1`, the IC50 is reported as 8.2 µM. With `Cc1ccccc1NC(=O)CSc1nc(Nc2ccccc2)nc(N2CCOCC2)n1` the IC50 was 15.3 µM (inactive). For `Cc1ccc(-c2nc(NC(=O)c3cc(C(C)(C)C)nn3C)sc2C)cc1Cl`, the IC50 was 4.26 µM. With `CCOc1ccccc1NC(=O)c1cccc(NC(=O)c2ccco2)c1` the IC50 was 12 µM. `O=C(CSc1nc2ccc(Nc3nc(N4CCOCC4)nc(N4CCOCC4)n3)cc2s1)NCc1ccco1` showed an IC50 of 6.77 µM. `COCCN1Cc2cccc(C(=O)Nc3cccc(C(C)=O)c3)c2C1=O` was tested, and the IC50 was 17.5 µM (inactive). `CCOC(=O)c1cc(-c2ccccc2)sc1NC(=O)C(C)N1C(=O)NC(C)(c2ccc(Cl)cc2)C1=O` (centres undefined) showed an IC50 of 8.38 µM. In the case of `CC(=O)Nc1cccc(-c2nc3ccccc3[nH]2)c1`, the IC50 is reported as > 50 µM (inactive). In the case of `COCCN1Cc2cccc(C(=O)Nc3nc4ccccc4n3C)c2C1=O`, the IC50 is reported as > 50 µM (inactive). With `COCCN1Cc2cccc(C(=O)Nc3cccnc3)c2C1=O` the IC50 was > 50 µM (inactive). For `Cc1ccccc1NC(=O)CSc1nc2ccc(Nc3nc(N4CCOCC4)nc(N4CCOCC4)n3)cc2s1`, the IC50 was 6.86 µM. Compound `CCOCCN1Cc2cccc(C(=O)Nc3cccc(-c4nc5ccccc5[nH]4)c3)c2C1=O` has an IC50 of 1.18 µM. For `COCCN1Cc2cccc(C(=O)Nc3ccc(C)cc3)c2C1=O`, the IC50 was 19.3 µM (inactive). Compound `O=C(Nc1cccc(-c2nc3ccccc3[nH]2)c1)c1cccc2c1C(=O)N(CCOc1ccccc1)C2` has an IC50 of 1.01 µM. For `CCCN1Cc2cccc(C(=O)Nc3cccc(C(C)=O)c3)c2C1=O`, the IC50 was > 50 µM (inactive). For `CCOC(=O)c1cccc(NC(=O)c2cccc3c2C(=O)N(CCOC)C3)c1`, the IC50 was > 50 µM (inactive). Compound `O=C(Nc1cccc(-c2nc3ccccc3[nH]2)c1)c1cccc2c1C(=O)N(CC1CC1)C2` has an IC50 of 1.53 µM. `CCCCN1Cc2cccc(C(=O)Nc3cccc(-c4nc5ccccc5[nH]4)c3)c2C1=O` was tested, and the IC50 was 0.982 µM. In the case of `O=C(Nc1cccc(-c2nc3ccccc3[nH]2)c1)c1ccncc1`, the IC50 is reported as > 50 µM (inactive). Compound `COCCN1Cc2cccc(C(=O)Nc3cccc(C(=O)Nc4ccccc4)c3)c2C1=O` has an IC50 of 2.9 µM. Compound `CCn1c(SCC(=O)Nc2nc(-c3ccc(C)cc3)cs2)nnc1-c1ccccc1O` has an IC50 of 7.87 µM. With `COCCN1Cc2cccc(C(=O)Nc3cccc(C(=O)Nc4ccccc4OC)c3)c2C1=O` the IC50 was 5.75 µM. `COCCN1Cc2cccc(C(=O)Nc3nc4ccccc4[nH]3)c2C1=O` was tested, and the IC50 was > 50 µM (inactive). `COc1cccc(-c2cc(C(=O)Nc3ccc(N(C)C(C)=O)cc3)c3cc(Br)ccc3n2)c1` was tested, and the IC50 was 10.4 µM. Compound `COCCCN1Cc2cccc(C(=O)Nc3cccc(-c4nc5ccccc5[nH]4)c3)c2C1=O` has an IC50 of 2.29 µM. Work on `COCCN1Cc2cccc(C(=O)Nc3ccc(-c4nc5ccccc5[nH]4)cc3)c2C1=O` yielded an IC50 of 0.0525 µM. `Cc1ccc(Nc2nc(OC(C(F)(F)F)C(F)(F)F)nc(N3CCOCC3)n2)cc1` showed an IC50 of 3.9 µM. `CCCCSc1nc2ccc(Nc3nc(N4CCOCC4)nc(N4CCOCC4)n3)cc2s1` showed an IC50 of 7.11 µM. In the case of `COCCN1Cc2cccc(C(=O)Nc3cccc(-c4nc5ccc(C(F)(F)F)cc5[nH]4)c3)c2C1=O`, the IC50 is reported as 0.832 µM. `O=C(CCC(=O)N1CCOc2ccc(Cl)cc21)NCCCN1CCC(Cc2ccccc2)CC1` gave an IC50 of 12.6 µM. `COCCN1Cc2cccc(C(=O)Nc3cccc(-c4nc5ccc(Cl)cc5[nH]4)c3)c2C1=O` gave an IC50 of 1.42 µM. For `O=C(Nc1cccc2ncccc12)c1ccc(Cl)cc1`, the IC50 was > 50 µM (inactive). `CCC(C)(C)NC(=O)C(c1ccc(OC)cc1)N(Cc1cccs1)C(=O)CCC(=O)Nc1cc(C)on1` (centres undefined) gave an IC50 of 5.88 µM. In the case of `O=C(Nc1cccc(-c2nc3ccccc3[nH]2)c1)C1CCCC1`, the IC50 is reported as 44.3 µM (inactive). With `COCCN1Cc2cccc(C(=O)Nc3ccc(CN4CCOCC4)cc3)c2C1=O` the IC50 was > 50 µM (inactive). With `O=C(CSc1nc2ccc(Nc3nc(N4CCOCC4)nc(N4CCOCC4)n3)cc2s1)Nc1ccccc1Cl` the IC50 was 7.85 µM. In the case of `O=C(Nc1cccc(-c2nc3ccccc3[nH]2)c1)c1ccccc1`, the IC50 is reported as 32.8 µM (inactive). In the case of `COCCn1cnc2cccc(C(=O)Nc3cccc(-c4nc5ccccc5[nH]4)c3)c2c1=O`, the IC50 is reported as > 50 µM (inactive). For `CCCN1Cc2cccc(C(=O)Nc3ccc(C)cc3)c2C1=O`, the IC50 was > 50 µM (inactive). In the case of `O=C(Nc1cccc(-c2nc3ccccc3[nH]2)c1)c1cccc2c1C(=O)N(CCc1ccccc1)C2`, the IC50 is reported as 8.04 µM. For `COCCN1Cc2cccc(C(=O)Nc3ccc(S(=O)(=O)N4CCOCC4)cc3)c2C1=O`, the IC50 was > 50 µM (inactive). With `CCN(CC)S(=O)(=O)c1ccc(NC(=O)c2cccc3c2C(=O)N(CCOC)C3)cc1` the IC50 was > 50 µM (inactive). Compound `Cc1cc(C)c2nc(-c3ccncc3)cc(C(=O)N3CCN(Cc4ccccc4Cl)CC3)c2c1` has an IC50 of 5.05 µM. In the case of `CCC(C)(C)NC(=O)C(c1ccc(C)cc1)N(Cc1ccco1)C(=O)CCC(=O)Nc1nccs1` (centres undefined), the IC50 is reported as 8.41 µM. With `O=C1COc2ccc(C(=O)CSc3nc4ccccc4c(=O)n3-c3ccc(Cl)c(Cl)c3)cc2N1` the IC50 was 14.9 µM. For `CCOc1ccc(NC(=O)CN(C)C(=O)c2cc(-c3ccc(OC)cc3)nc3ccccc23)cc1OCC`, the IC50 was 15.3 µM (inactive). With `O=C(Nc1cccc(-c2nc3ccccc3[nH]2)c1)c1cccc2c1C(=O)N(CCN1CCOCC1)C2` the IC50 was 3.36 µM. `COCCN1Cc2cccc(C(=O)Nc3cccc(-c4nc5ccc(C)cc5[nH]4)c3)c2C1=O` was tested, and the IC50 was 1.31 µM. For `CCOc1ccc(CCNC(=O)CN2CCN(Cc3ccccc3C)C2=O)cc1OCC`, the IC50 was 10.8 µM. With `COCCN1Cc2cccc(C(=O)Nc3cccc(-c4nc5ccccc5[nH]4)c3)c2C1=O` the IC50 was 1.19 µM and 1.25 µM and 1.68 µM. For `CCCC(=O)Nc1nc2ccc(NC(=O)c3ccccc3F)cc2s1`, the IC50 was 13.5 µM. In the case of `CCCN1Cc2cccc(C(=O)Nc3ccc(-c4nc5ccccc5[nH]4)cc3)c2C1=O`, the IC50 is reported as > 50 µM (inactive). Work on `CCN(CC)S(=O)(=O)c1ccc(N2CCOCC2)c(NC(=O)c2[nH]c(C)c(C(C)=O)c2C)c1` yielded an IC50 of 11.3 µM. In the case of `CSCCCN1Cc2cccc(C(=O)Nc3cccc(-c4nc5ccccc5[nH]4)c3)c2C1=O`, the IC50 is reported as 0.661 µM. `COc1cc(NC(=O)c2cc([N+](=O)[O-])ccc2NC(=O)CN2CCN(c3ccccn3)CC2)cc(OC)c1` gave an IC50 of 8.11 µM. `Cc1cccc2c(C(=O)N3CCN(c4ccccc4)CC3)cc(-c3ccncc3)nc12` gave an IC50 of 4.25 µM. With `COCCN1Cc2cccc(C(=O)Nc3cccc(Cl)c3)c2C1=O` the IC50 was > 50 µM (inactive). In the case of `O=[N+]([O-])c1ccc(Nc2nc(NC3CCCCC3)nc(N3CCCC3)n2)cc1`, the IC50 is reported as 14 µM. `Cc1ccccc1OCCNc1cc(N2CC(C)NC(C)C2)ccc1[N+](=O)[O-]` (centres undefined) was tested, and the IC50 was 11.3 µM. `COc1ccccc1CCN1Cc2cccc(C(=O)Nc3cccc(-c4nc5ccccc5[nH]4)c3)c2C1=O` showed an IC50 of 1.07 µM.
